Results from patent publication US20250230138A1, “COMPOUNDS HAVING A T-STRUCTURE FORMED BY AT LEAST FOUR CYCLES FOR USE IN THE TREATMENT OF CANCER AND OTHER INDICATIONS” (TheRas, Inc., priority 2022, published 2025).
Like-named read-outs stand apart in the source and are kept apart here.

Columns and labels:
[1] = test system: pAKT in BT474 cells; test: Cell-based pAKT HTRF assay in BT474 cells; conditions: BT474 cells, 4 hr incubation, read-out: pAKT inhibition IC50 in BT474 cells
Method in brief: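 Treatment lasts 4 hr in DMEM/10% FBS at 0.25% DMSO over nine 3-fold dilutions from 3 μM. The lysate is then probed by HTRF.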

[2] = biological target: Cys242 in human PIK3CA (157-299) (Homo sapiens (Human), UniProt P42336); test: Covalent modification assay using MALDI-TOF MS; assay type: biochemical; conditions: 4 h reaction time point
Method in brief: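 Covalent adduct formation was read by linear-mode MALDI-TOF with sinapinic acid matrix, reported as modified-protein peak height divided by total protein peak heights. Reactions held PIK3CA (157-299) at 1 or 3.33 μM in HEPES/NaCl/MgCl2 buffer, pH 7.3, sampled after 15 min to 4 h at room temperature.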

[3] = 3.33 μM protein target, 1:7.5 protein to compound ratio (compounds 1-852)
[4] = 1 μM protein target, 1:5 protein to compound ratio (compounds 853-1279)

Chain of Cys242 in human PIK3CA (157-299) (P42336 157-299): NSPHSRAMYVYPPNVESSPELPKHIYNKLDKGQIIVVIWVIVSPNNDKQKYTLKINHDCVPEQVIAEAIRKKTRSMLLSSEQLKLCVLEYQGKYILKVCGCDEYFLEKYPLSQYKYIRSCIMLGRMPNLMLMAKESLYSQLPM

In the case of C=CC(=O)N1Cc2cc(-c3nc(-c4cnn(C)c4)c4ccsc4c3-c3c(F)cc(F)cc3OC[C@@H](C)O)nn2[C@@H](C)C1 [Compound 582], the IC50 ([1]; Compounds 10-999) is reported as under 100 nM and the “% of modification” value [2, 3] is reported as “A (percent of modification of PIK3CA protein ≥75%)”.
For C=CC(=O)N1CCn2nc(-c3nc(-c4ccc5c(c4)CCN(C(C)C)C5)c4ccsc4c3-c3ccc(F)cc3OCC3CCNC(=O)C3)cc2C1 (stereo not drawn) [Compound 254], the IC50 ([1]; Compounds 10-999) was under 100 nM and the “% of modification” value [2, 3] was “A (percent of modification of PIK3CA protein ≥75%)”.
C=CC(=O)N1CCn2nc(-c3nc(-c4ccc(C5(C(=O)NC)CC5)cc4)c4ccsc4c3-c3c(F)cc(F)cc3OCCO)cc2[C@H]1C [Compound 1135] was tested, and the IC50 ([1]; Compounds 1000-1279) was under 100 nM and the “% of modification” value [2, 4] was “A (percent of modification of PIK3CA protein ≥75%)”.
With C=CC(=O)N1CCc2nc(-c3nc(-c4cnn(CC(F)F)c4)c4ccsc4c3-c3ccc(F)cc3OCCOC)sc2C1 [Compound 125] the IC50 ([1]; Compounds 10-999) was under 100 nM and the “% of modification” value [2, 3] was “A (percent of modification of PIK3CA protein ≥75%)”.
With C=CC(=O)N1CCn2nc(-c3nc(-c4ccc5cnn(C)c5c4)c4ccsc4c3-c3c(F)cc(F)cc3OCC(C)O)cc2C1C (stereo not drawn) [Compound 769] the IC50 ([1]; Compounds 10-999) was under 100 nM and the “% of modification” value [2, 3] was “A (percent of modification of PIK3CA protein ≥75%)”.
For COCCOc1cc(F)cc(F)c1-c1c(-c2cc3n(n2)CCN(C(=O)C(F)Cl)[C@@H]3C)nc(-c2ccc3c(cnn3C)c2)c2ccsc12 (stereo partly drawn) [Compound 1228], the IC50 ([1]; Compounds 1000-1279) was over 1000 nM and the “% of modification” value [2, 4] was “D (percent of modification <25%)”.
For C=CC(=O)N1CCn2nc(-c3nc(-c4ccc5c(c4)CCNC5=O)c4ccsc4c3-c3c(F)cc(F)cc3OC)cc2C1C (stereo not drawn) [Compound 1120], the IC50 ([1]; Compounds 1000-1279) was under 100 nM and the “% of modification” value [2, 4] was “A (percent of modification of PIK3CA protein ≥75%)”.
COCCOc1cc(F)cc(F)c1-c1c(-c2cc3n(n2)CCN(C(=O)CCl)[C@@H]3C)nc(-c2ccc3c(cnn3C)c2)c2ccsc12 [Compound 1225] was tested, and the IC50 ([1]; Compounds 1000-1279) was over 1000 nM and the “% of modification” value [2, 4] was “A (percent of modification of PIK3CA protein ≥75%)”.
In the case of C=CC(=O)N1Cc2cc(-c3nc(-c4ccc5c(cnn5C)c4)c4ccsc4c3-c3c(F)cc(F)cc3OCCOC)nn2[C@@H](C)C1 [Compound 739], the IC50 ([1]; Compounds 10-999) is reported as under 100 nM and the “% of modification” value [2, 3] is reported as “A (percent of modification of PIK3CA protein ≥75%)”.
C=CC(=O)N1Cc2cc(-c3nc(-c4cnn(C)c4)c4ccsc4c3-c3c(F)cc(F)cc3OCCO)nn2CC1C (stereo not drawn) [Compound 534] was tested, and the IC50 ([1]; Compounds 10-999) was under 100 nM and the “% of modification” value [2, 3] was “A (percent of modification of PIK3CA protein ≥75%)”.
C=CC(=O)N1CCc2ccc(-c3nc(-c4ccc5c(c4)CCN(CC(F)F)CC5)c4ccsc4c3-c3c(F)cc(F)cc3OCCOC)cc2C1 [Compound 1271] was tested, and the IC50 ([1]; Compounds 1000-1279) was over 1000 nM and the “% of modification” value [2, 4] was “D (percent of modification <25%)”.
In the case of C=CC(=O)N1CCc2ncc(-c3nc(-c4ccc5ncn(C)c5c4)c4ccsc4c3-c3c(F)cc(F)cc3OCCOC)cc2C1 [Compound 403], the IC50 ([1]; Compounds 10-999) is reported as under 100 nM and the “% of modification” value [2, 3] is reported as “A (percent of modification of PIK3CA protein ≥75%)”.
C=CC(=O)N1CCn2nc(-c3nc(-c4ccc5c(cnn5C)c4)c4ccsc4c3-c3c(F)cc(F)cc3OCCOC(F)F)cc2C1C (stereo not drawn) [Compound 1234] was tested, and the IC50 ([1]; Compounds 1000-1279) was under 100 nM and the “% of modification” value [2, 4] was “A (percent of modification of PIK3CA protein ≥75%)”.
For C=CC(=O)N1Cc2cc(-c3nc(-c4cnc5c(c4)CN(C)C5=O)c4ccsc4c3-c3c(F)cc(F)cc3OC(C)C)nn2[C@@H](C)C1 [Compound 505], the IC50 ([1]; Compounds 10-999) was under 100 nM and the “% of modification” value [2, 3] was “A (percent of modification of PIK3CA protein ≥75%)”.
C=CC(=O)N1CC[C@H](n2cc(-c3nc(-c4ccc5c(c4)CCNC5)c4ccsc4c3-c3ccc(F)cc3OCCOC)ccc2=O)[C@H]1C [Compound 188] was tested, and the IC50 ([1]; Compounds 10-999) was 100 to 1000 nM and the “% of modification” value [2, 3] was “A (percent of modification of PIK3CA protein ≥75%)”.
C=CC(=O)N1CC(n2cc(-c3nc(-c4ccc5c(c4)CCNC5)c4ccsc4c3-c3cnn(C)c3)cn2)C1 [Compound 90] was tested, and the IC50 ([1]; Compounds 10-999) was over 3000 nM and the “% of modification” value [2, 3] was “D (percent of modification <25%)”.
C=C(F)C(=O)N1CCn2nc(-c3nc(-c4cnc5c(c4)CNC5=O)c4ccsc4c3-c3c(F)cc(F)cc3OC(C)C)cc2C1 [Compound 356] was tested, and the IC50 ([1]; Compounds 10-999) was under 100 nM and the “% of modification” value [2, 3] was “A (percent of modification of PIK3CA protein ≥75%)”.
In the case of C=CC(=O)N1CCn2nc(-c3nc(-c4ccc5c(c4)CN(C)CC5(F)F)c4ccsc4c3-c3c(F)cc(F)cc3OC)cc2C1C (stereo not drawn) [Compound 1275], the IC50 ([1]; Compounds 1000-1279) is reported as under 100 nM and the “% of modification” value [2, 4] is reported as “A (percent of modification of PIK3CA protein ≥75%)”.
C=CC(=O)N1CCn2nc(-c3nc(-c4ccc5ncn(C)c5c4)c4ccsc4c3-c3c(F)cc(F)cc3OCCO)cc2[C@@H]1C [Compound 645] was tested, and the IC50 ([1]; Compounds 10-999) was under 100 nM and the “% of modification” value [2, 3] was “A (percent of modification of PIK3CA protein ≥75%)”.
With C=CC(=O)N1CCc2nc(-c3nc(-c4ccn(C(C)C)c(=O)c4)c4ccsc4c3-c3ccc(F)cc3OCCOC)sc2C1 [Compound 139] the IC50 ([1]; Compounds 10-999) was 100 to 1000 nM and the “% of modification” value [2, 3] was “A (percent of modification of PIK3CA protein ≥75%)”.
C=CC(=O)N1CCn2nc(-c3nc(-c4cnn(C)c4)c4ccsc4c3-c3ccc(F)cc3OC(C)C)nc2C1 [Compound 225] was tested, and the IC50 ([1]; Compounds 10-999) was under 100 nM and the “% of modification” value [2, 3] was “A (percent of modification of PIK3CA protein ≥75%)”.
C=CC(=O)N1CCn2nc(-c3nc(-c4ccc(C(=O)N(C)CCN(C)C)cc4)c4ccsc4c3-c3c(F)cc(F)cc3OCCOC)cc2C1C (stereo not drawn) [Compound 1206] was tested, and the IC50 ([1]; Compounds 1000-1279) was under 100 nM and the “% of modification” value [2, 4] was “A (percent of modification of PIK3CA protein ≥75%)”.
For C=CC(=O)N1CCc2ncc(-c3nc(-c4ccc5c(c4)C(O)CC5)c4ccsc4c3-c3c(F)cc(F)cc3OC(C)C)cc2C1 (stereo not drawn) [Compound 384], the IC50 ([1]; Compounds 10-999) was under 100 nM and the “% of modification” value [2, 3] was “A (percent of modification of PIK3CA protein ≥75%)”.
For C=CC(=O)N1CC(n2cc(-c3nc(-c4ccnc(N)c4)c4ccsc4c3-c3ccc(F)cc3OCCOC)ccc2=O)C1 [Compound 177], the IC50 ([1]; Compounds 10-999) was 100 to 1000 nM and the “% of modification” value [2, 3] was “B (50%<percent of modification <75%)”.
C=CC(=O)N1CCn2nc(-c3nc(-c4ccc5c(c4)CNC(=O)C5)c4ccsc4c3-c3c(F)cc(F)cc3OCCOC)cc2C1C (stereo not drawn) [Compound 926] was tested, and the IC50 ([1]; Compounds 10-999) was under 100 nM and the “% of modification” value [2, 4] was “A (percent of modification of PIK3CA protein ≥75%)”.
In the case of C=CC(=O)N1Cc2cc(-c3nc(-c4ccc5c(c4)CCN(C)C5)c4ccsc4c3-c3c(F)cc(F)cc3OC)nn2C(C)C1 (stereo not drawn) [Compound 484], the IC50 ([1]; Compounds 10-999) is reported as under 100 nM and the “% of modification” value [2, 3] is reported as “A (percent of modification of PIK3CA protein ≥75%)”.
For C=CC(=O)N1CCc2ccc(-c3nc(-c4ccc5c(c4)CNC(=O)C5)c4ccsc4c3-c3c(F)cc(F)cc3OCCOC)cc2C1 [Compound 1108], the IC50 ([1]; Compounds 1000-1279) was under 100 nM and the “% of modification” value [2, 4] was “A (percent of modification of PIK3CA protein ≥75%)”.
For C=CC(=O)N1C[C@H](C)n2nc(-c3nc(-c4cnn(C)c4)c4ccsc4c3-c3c(F)cc(F)cc3OCCOC)cc2[C@@H]1C [Compound 603], the IC50 ([1]; Compounds 10-999) was 1000 to 3000 nM and the “% of modification” value [2, 3] was “D (percent of modification <25%)”.
C=CC(=O)N1CCn2nc(-c3nc(-c4cnn(C)c4)c4ccsc4c3-c3ccc(F)cc3OCCOC)cc2C1 [Compound 194, 1-[2-[7-[4-fluoro-2-(2-methoxyethoxy)phenyl]-4-(1-methylpyrazol-4-yl)thieno[3,2-c]pyridin-6-yl]-6,7-dihydro-4H-pyrazolo[1,5-a]pyrazin-5-yl]prop-2-en-1-one] was tested, and the IC50 ([1]; Homo sapiens, BT-474, Compounds 10-999) was under 100 nM and the “% of modification” value [2, 3] was “A (percent of modification of PIK3CA protein ≥75%)”.
For C=CC(=O)N1Cc2cc(-c3nc(-c4cnnc(C)c4)c4ccsc4c3-c3c(F)cc(F)cc3OCCO)nn2C(C)C1 (stereo not drawn) [Compound 788], the IC50 ([1]; Compounds 10-999) was under 100 nM and the “% of modification” value [2, 3] was “A (percent of modification of PIK3CA protein ≥75%)”.
